Source: US20260207581A1, “Small Molecule Inhibitor for Inflammatory Pain Inhibition” (University of Rochester, priority 2023, published 2026)
“Also recorded” adds a separate entry of the source.

Columns and labels:
YAP1 = assay: YAP / Sox9 immunolocalization in TMJ discs and condylar growth plate of the CFA model; format: in vivo, rat
Protocol: Because of this initial success, it was further examined if PFI-2 treatment could rescue inhibition of chondrocyte maturation and return YAP expression in the condylar growth plate of animals suffering from inflammation. To test the ability to repair damage, animals were injected with saline or CFA. After inflammation, a subset of the CFA-treated animals were also injected with PFI-2. Tissue samples from each were stained with H&E, safranin O, and PCNA, YAP was detected by immunostaining, and cartilage differentiation was determined by immunostaining for Sox 9 (FIG. 3A-FIG. 3O). The samples were also examined by RT-PCR for expression levels of collagen 2, collagen 10, Mmp 13 metalloproteinase, Runx2 bone transcription factor, and Sox 9 (FIG. 3P).
Here, the role of the Hippo pathway effectors YAP and TAZ is elucidated in an inflammatory TMD models. YAP and TAZ interact with DNA-binding factors of the TEAD family in the nucleus to regulate gene expression. […] First, the expression and subcellular localization of YAP is characterized under physiological and inflammatory conditions in TMJ tissues, RSSCs and RCs. The expression pattern of the YAP protein in TMJ tissues are elucidated by immunohistochemistry using anti-YAP antibody and the expression levels of YAP mRNA and protein is determined using qRT-PCR and Western blotting. […]

SETD7 [1] = molecular target: T1, SETD7 (Rattus norvegicus, UniProt A0A8I6A0F7); assay: SETD7 and YAP localization and protein methylation in TNF-α treated RSSCs; format: cell-based; conditions: RSSCs treated with TNF-α
T1 construct: endogenous in cells; host or cells: primary rat synovial mesenchymal stem cells (RSSCs)
T1 sequence (A0A8I6A0F7 1-367): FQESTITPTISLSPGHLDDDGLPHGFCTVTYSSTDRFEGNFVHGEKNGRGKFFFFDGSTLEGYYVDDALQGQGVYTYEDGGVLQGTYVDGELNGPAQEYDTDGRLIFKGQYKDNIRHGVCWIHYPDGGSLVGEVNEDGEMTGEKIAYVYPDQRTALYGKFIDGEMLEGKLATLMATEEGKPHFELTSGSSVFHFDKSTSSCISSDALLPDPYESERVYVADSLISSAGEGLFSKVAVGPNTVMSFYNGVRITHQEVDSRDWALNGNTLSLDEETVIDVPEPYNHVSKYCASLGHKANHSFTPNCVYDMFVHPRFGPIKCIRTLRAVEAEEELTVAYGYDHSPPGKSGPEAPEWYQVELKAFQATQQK
Protocol: As a first step, the expression and localization of SETD7 and YAP are examined in RCs and RSSCs at the mRNA and protein level under physiological and inflammatory conditions. RCs and RSSCs are cultured with or without TNF-α for 6, 12, and 24 hours. Proteins and mRNAs from cultured cells are isolated for RT-PCR and Western Blot analyses. The localization of SETD7 and YAP in relationship toward each other is visualized by immunofluorescence, and the methylation levels and distribution of YAP in nuclei and cytoplasm are determined by Western blotting using anti-SETD7 and anti-YAP antibodies (Abcam). To determine whether YAP and SETD7 interact, co-immunoprecipitation assays is performed, and the degree of interaction between SETD7 and YAP is compared between TNF-α-treated cells and control cells (Ito et al. 2011).
Rat synovial mesenchymal stem cells (RSSCs) were cultured and examined for SETD7 nuclear localization.

SETD7 [2] = molecular target: T2, SETD7 (Homo sapiens, UniProt Q8WTS6); conditions: Francis et al. 2018; cited from earlier work
T2 sequence (Q8WTS6 1-366): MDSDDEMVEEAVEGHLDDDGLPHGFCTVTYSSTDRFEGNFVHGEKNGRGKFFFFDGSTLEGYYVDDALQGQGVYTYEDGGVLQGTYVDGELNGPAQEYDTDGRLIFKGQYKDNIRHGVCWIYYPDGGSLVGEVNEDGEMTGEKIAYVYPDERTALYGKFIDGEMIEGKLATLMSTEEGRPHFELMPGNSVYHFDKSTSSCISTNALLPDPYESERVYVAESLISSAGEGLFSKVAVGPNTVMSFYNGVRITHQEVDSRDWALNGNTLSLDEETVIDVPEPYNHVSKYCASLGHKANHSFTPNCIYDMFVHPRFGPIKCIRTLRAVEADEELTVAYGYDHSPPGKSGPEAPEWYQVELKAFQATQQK

RSSCs = assay: BrdU labeling and β-gal senescence staining of TNF-α treated RSSCs; format: cell-based, rat; conditions: RSSCs treated with TNFα
TMJ tissues = assay: CFA injection rat model of inflammatory TMD: swelling, uCT and histology of TMJ tissues; format: in vivo
[3] = tested on: TNFα-induced cell infiltration; assay: Subcutaneous implantation of coated collagen sponges; format: in vivo; conditions: sponges coated with TNFα plus PFI-2
Text: In vivo analysis was examined by subcutaneous implantation of collagen sponges coated with PBS, TNF-α, or TNF-α and PFI-2.

IL-1β expression = assay: Cultured condyle organs treated with IL-6, IL-1β immunostaining; format: cell-based; conditions: IL-6 plus PFI-2
[4] = tested on: SETD1, IL-6 and MMP2 expression; assay: qRT-PCR and Western blotting of selected inflammatory genes under TNFα; format: cell-based, rat
[5] = tested on: inflammatory genes, matrix proteins, adhesion molecules and neuropeptides in TMJ tissues; assay: qRT-PCR analysis of gene expression in TMJ tissues of the CFA model; format: in vivo, rat
Protocol: To see if this reduction in inflammation and its associated damage could provide therapeutic benefit, the ability of PFI-2 to reduce inflammatory pain was examined. Animals were injected with saline or CFA and meal duration, a proxy for pain, was examined over a span of 21 days post-injection. […] Calcitonin gene-related peptide (CGRP) localization and expression in the synovial membrane were examined by immunostaining, where it was observed that CGRP was localization in synovial cells and neurons was increased in animals treated with CFA (FIG. 4C and FIG. 4D).
Expression of Osteogenic, Chondrogenic and Inflammatory Genes in a TMD model: To generate benchmark data for functional and mechanistic studies TMJ discs, synovia, and condyles are dissected and mRNA and protein expression levels of bone marker genes measured, including collagen type I (Col I), alkaline phosphatase (Alp), Runx2, Osterix (Osx), osteocalcin (Ocn), and bone sialoprotein (Ibsp), as well as cartilage marker genes such as collagen II, Sox 9, Col X, and biglycans. To characterize the effect of the YAP upregulator PFI-2 on inflammation and osteoclast formation, the expression of inflammatory cytokines (IL-1b, IL-6, TNF-α), NF-κB, MMPs (MMP2, MMP9 and MMP13), adhesion molecules (CDH11, ICAM, Integrin β1), and osteoclastogenesis-related genes (Rank, Rankl, Opg, Trap5b, and NFATc1) is detected using quantitative RT-PCR and Western blotting as described by Walker et al. (2010). Localization of these genes in the inflamed TMJ is further specified using immunofluorescence.
Inflammatory Changes in the Expression of Neuropeptides CGRP, NPY and SP1 in vivo and in vitro: For in vivo studies, rat TMJ discs, synovial membrane, condyle, trigeminal ganglia and trigeminal nucleus caudalis are collected bilaterally from saline-or CFA-treated rats for RNA and protein isolation, and histological analysis. The expression of CGRP, NPY, TAC1, and Galanin (GAL) at gene and protein levels are measured using qRT-PCR and Western blotting. For histology, tissues are fixed in 4% paraformaldehyde and prepared for paraffin sections as described previously (Lu et al, 2016a, b). Cells and neurons positive for CGRP, NPY, SP1 (an isoform of TAC1 protein) and Gal are visualized via immunofluorescence or immunohistochemistry using antibodies against CGRP, GAL, NYP, and TAC1 (Abcam). Expression levels of these genes and the numbers of immunoreactive cells are compared between different treatment groups.

inflammatory TMD pain = assay: Place escape/avoidance paradigm (PEAP) pain behavior in inflammatory TMD model; format: in vivo, rat; conditions: for time spent in the dark half of the PEAP chamber: CFA plus PFI-2 injection
Protocol: Effect of PFI-2 Mediation on Inflammatory Conditions and Pain: Tmj pain is assessed as meal duration and via Place Escape Avoidance Paradigm (PEAP)-based measures (FIG. 1, Vertebrate Justification section). Testing is performed in both male and female rats as sex differences have been observed in humans and animals. Female animals are tested for the estrous cycle and the results are reported for the di-estrus, estrus, and pro-estrus phases (Kramer, Bellinger, 2009).
Peap Testing: the Chamber Used for the Place Escape Avoidance Paradigm (PEAP) testing is a 30 cm×30 cm acrylic box in which half the box is covered in black cloth. Each individual rat is placed into the chamber; due to their nocturnal circadian rhythm, rodents prefer the dark side of the chamber. Rats on the dark side of the chamber receive a stimulus at the injected side, whereas rats with their head on the clear side of the chamber are stimulated on the contralateral non-injected side with a 60 g filament every 15 seconds. The stimulus is administered below the eye and caudal to the whisker pad. The time spent on the dark side of the box is recorded in 5 min bins, testing is performed for a total of 30 min on the test day and thereafter on a one day a week basis for 8 weeks as previously described (Stinson et al. 2017; 2019).
Injection of PFI-2-Col I, PFI-2-decm Hydrogel and PFI-2-exosome solution into the TMJ: Four groups (SV, SP, CV, and CP) receive injections of the saline plus carrier, saline plus PFI-2 carrier, CFA plus carrier, or CFA plus PFI-2 carrier, respectively. The TMJ injection procedure is described in FIG. 1. Forty-eight hours after the injection of saline or CFA solution, PFI-2 (10 μM) in a carrier, or the carrier alone, is injected every two days, or once within 10 days. The injection times and effect duration of PFI-2 on both inflammatory degeneration and pain are optimized.
PEAP behavior of animals was investigated after administration of saline, CFA, or CFA and a PFI-2 carried by either a Col I hydrogel or a dECM hydrogel.

[6] = PFI-2 injected following CFA induction of inflammatory conditions

## O=C([C@@H](Cc1cccc(C(F)(F)F)c1)NS(=O)(=O)c1cc(F)c2c(c1)CCNC2)N1CCCC1 [PFI-2]
YAP1; [6]
  YAP expression and localization in the condylar growth plate: rebalance YAP1 expression; also recorded: re-localized YAP1 and SOX9 proteins; also recorded: returned YAP expression
YAP1; rats, CFA model
  YAP1 immunolocalization in TMJ discs: translocated YAP into nuclei
SETD7 [1]
  SETD7 nuclear localization: blocked the effect of TNF-α on SETD7 nuclear localization
  global protein methylation levels in whole cell lysates (Western blot): reduces methylation; also recorded: inhibited this effect
SETD7 [2]
  inflammation and tissue regeneration in periodontal diseases: suppresses inflammation and promotes tissue regeneration
RSSCs
  BrdU positive proliferating cells: restored the proliferative potential of inflammation-compromised cells; also recorded: restored cellular proliferation
  β-gal+ cell senescence: inhibited TNFα-induced cell senescence
TMJ tissues; [6]
  inflammation-induced retardation of chondrocyte differentiation / condylar growth plate structure: able to reverse it; also recorded: restored condyle growth plate structure and function; also recorded: reversed
TMJ tissues; inflammatory conditions, three PFI-2 delivery modalities
  bone volume, mechanical properties and thickness of functional condyle layers: restores outcomes to near-physiological values
TMJ tissues; rats, 48 hours after injection, CFA-induced (10% increase with CFA)
  regional swelling / distance between the two ear tragi: no swelling was observed
TMJ tissues; rats, CFA model
  collagen fibers in the TMJ disc (Pico Sirius red staining): lightened; also recorded: conversion to light red, thinner fibers
  structure and function of fibrocartilage in the TMJ (H&E): rescued the structure and function of fibrocartilage
  thickness of the fibrous and proliferative cell layers / hypertrophic zones (H&E): rescued; also recorded: reduced
TMJ tissues; rats, CFA model, paraffin-embedded TMJ tissues
  TMJ disc thickening and fusion with the condyle (H&E): rescued; also recorded: detachment of the TMJ disc and condyle
TMJ tissues; rats, CFA plus PFI-2 injection
  condylar bone volume and joint space between temporal fossa and condyle (uCT): rescued
TMJ tissues; rats, CFA-induced inflammation
  fibrous adhesion of TMJ disc and condylar surface (Masson trichrome): prevented the attachment; also recorded: released fibrous adhesion; also recorded: de-attached the TMJ disc from the condyle
[3]
  cell infiltration into collagen sponges: reversed inflammatory cell infiltration in tissue implants; also recorded: reversed this effect
  extracellular matrix remodeling in collagen sponges: promoted extracellular matrix remodeling; also recorded: promoted ECM remodeling
IL-1β expression
  IL-1β expression (immunostaining): inhibited the expression of IL-18; also recorded: inhibited IL-1β expression
  swelling of the articular surface (thickness of fibrous and proliferative cell zones): reversed the swelling of the articular surface
[4]
  TNFα-induced gene dysregulation (Western blotting): confirmed
[4]; PFI-2 at 1, 10, and 50 μM
  TNFα-induced upregulation of SETD1, IL-6 and MMP2 expression (qRT-PCR): inhibited by treatment with PFI-2 in a dose-dependent manner; also recorded: inhibited TNFα-induced upregulation in a dose-dependent manner
[5]; CFA-PFI-treated (CP) vs CFA-treated (CV)
  expression of CGRP, NPY and TAC in TMJ tissues (qRT-PCR): reduced to near-normal levels
[5]; CFA-PFI-treated (CP) vs CFA-treated (CV), listed as PFI
  expression of CGRP, NPY and TAC in TMJ tissues (qRT-PCR): almost reduced to normal levels
[5]; rats, CFA model
  inflammatory gene / cytokine expression in TMD tissues (qRT-PCR): inhibited the expression of inflammatory cytokines; also recorded: downregulated inflammatory gene expression
[5]; rats, CFA-PFI-treated (CP) vs CFA-treated (CV)
  matrix protein and adhesion molecule expression in TMJ tissues (qRT-PCR): reversed the upregulation
Inflammatory TMD pain; collagen gel (Col I hydrogel) as carrier
  time spent in the dark half of the PEAP chamber: significantly rescued; also recorded: significantly increased
Inflammatory TMD pain; dECM hydrogel as carrier, compared with collagen carrier
  time spent in the dark half of the PEAP chamber: far more significant; also recorded: further improved
Inflammatory TMD pain; inflammatory TMD model
  inflammatory pain: greatly reduced pain; also recorded: reduction in inflammatory pain; also recorded: reduced inflammatory pain
Inflammatory TMD pain; mice subjected to inflammatory temporo-mandibular joint pain
  time on the dark side of PEAP chambers: dramatically reduced time
